Entries after “also recorded” stand apart in the source; their conditions may differ.

One data set concerns C57B1/6 mice. Nature of the data set: Murine cerebral ischemia model (intraluminal suture, 2 hr MCA occlusion, TTC staining). It is filed as in vivo. Particulars: loading dose 100 mg/kg i.p., maintenance 40 mg/kg i.p. every 12 hr, first dose 2 hr after MCA occlusion; TTC staining at 48 hr; P<0.03 from control, P<0.05 from memantine; hydrochloride. How it is done: The intraluminal suture technique was used to produce a 2 hr occlusion of the middle cerebral artery (MCA), following the same protocol for focal cerebral ischemia/reperfusion as published previously (Chen, et al., Neuroscience (1998) 86: 1121). However, here C57B1/6 mice were used instead of rats. […] To produce a neuroprotective concentration of compound 7, the loading dose was 100 mg/kg i.p. and the maintenance dose was 40 mg/kg i.p. every 12 hr. In each case, drug or vehicle control was initially administered 2 hr after MCA occlusion. […] The animals were sacrificed and analyzed with TTC staining 48 hr after MCA occlusion (Chen, et al., Neuroscience (1998) 86: 1121).

In data set [1] the test system is precontracted aortic vessel. As to the kind of experiment: Relaxation of norepinephrine-precontracted, endothelium-denuded thoracic aorta rings. Details: species or system rabbits. Particulars: for effect on precontracted blood vessel: compared to solvent (EtOH) alone. The method, then: New Zealand white female rabbits weighing 3-4 kilograms were anesthetized with sodium pentobarbital, 13 milligram per kilogram. Descending thoracic aorta were isolated, the vessels were cleaned of adherent tissue and the endothelium was removed by a gentle rubbing with a cotton-tipped applicator inserted into the lumen. The vessels were cut into 5 millimeter rings and mounted on stirrups connected to transducers by which changes in isometric tension were recorded (model TO3C, Grass Instruments, Quincy, Mass.). Vessel rings were suspended in 20 mL of oxygenated Krebs buffer at 37° C. and sustained contractions were induced with 1 μM norepinephrine. The vessels were then relaxed in a dose-dependent fashion (10^−9 through 10^−5 M compound 8). In some experiments vessels were pretreated with methylene blue or hemoglobin to block relaxations.
Relaxations were attenuated by methylene blue (c) and hemoglobin (d) indicating an NO-related effect. (b) is a control with solvent.

Another data set relates to cerebrocortical neurons. Nature of the data set: In vitro model of mild NMDA-induced damage leading to apoptosis of cerebrocortical neurons. In kind it is cell-based. The method, then: Cerebrocortical cultures were exposed to 300 μM NMDA for 20 min with or without various concentrations of compound 7. The next day cultures were analyzed by neuronal apoptosis as described in Example 19.
Under these conditions (300 μM NMDA exposure for 20 min, followed by washout), neuronal apoptosis was monitored 24 hours later by propidium iodide uptake and morphology of fixed, permeabilized neurons, among other techniques (Bonfoco et al., Proc Natl Acad Sci USA (1995) 92: 7162). NMDA induced about 20% apoptosis of neurons, and that 25-100 μM compound 7 afforded protection from this damage (P<0.001, FIG. 5).

For data set [2] the following is noted: loading dose 20 mg/kg i.p., maintenance dose 1 mg/kg/12 hours; previously shown (Chen et al. 1998); cited from earlier work.
The mark [3] stands for this setting: rabbit aortic rings precontracted with 1 μM norepinephrine, 10^−9 through 10^−5 M tested.

Turning to `CC12CC3(C)CC(N)(C1)CC(O[N+](=O)[O-])(C2)C3.Cl` [compound 7, 1-amino-3,5-dimethyl-7-nitrateadamantane hydrochloride], the “cerebral damage after stroke (neuroprotection)” value in the data set with C57B1/6 mice is “more neuroprotective than memantine; also recorded: effective in decreasing cerebral damage after stroke”. The “effect on precontracted blood vessel at 10 microM” value in data set [1] (FIG. 8, 10 microM concentration) is “modest relaxation”. Further, in the data set with cerebrocortical neurons (300 μM NMDA for 20 min, washout, apoptosis monitored 24 hours later by propidium iodide uptake and morphology, NMDA induced about 20% apoptosis, P<0.001), the “concentration affording protection from NMDA-induced neuronal apoptosis” value was 25 to 100 µM. In addition, the “inhibition of NMDA induced apoptosis in cerebrocortical neurons” value with cerebrocortical neurons (300 μM NMDA for 20 min with various concentrations of compound, dose-dependent, P<0.001, n=3 cultures) is reported as “largely prevented”.

Regarding `CC(=O)NC12CC3(C)CC(C)(C1)CC(O[N+](=O)[O-])(C3)C2` [compound 8, 1-acetamido-3,5-dimethyl-7-nitrateadamantane], in data set [1] (setting [3]), the “concentration at which complete relaxation was achieved” value is 10^−6 M and the “concentration at which relaxations were seen” value is 10^−8 M. Moreover, the “relaxations after pretreatment with hemoglobin” value in data set [1] (vessels pretreated with hemoglobin) was “attenuated”. Moreover, the “relaxations after pretreatment with methylene blue” value in data set [1] (vessels pretreated with methylene blue) was “attenuated”.

On to `CC12CC3(C)CC(N)(C1)CC(O)(C2)C3.Cl` [compound 9, 1-amino-3,5-dimethyl-7-hydroxyadamantane hydrochloride], for which the “effect on precontracted blood vessel” value in data set [1] (FIG. 8, hydrochloride) was “either no effect or slight contractions of blood vessels; also recorded: either no effect or slight blood vessel contractions”.

Turning to `CC12CC3(C)CC(O)(C1)CC(N(Cc1ccccc1)Cc1ccccc1)(C2)C3` [compound 10, 1,1-dibenzylamino-3,5-dimethyl-7-hydroxy-adamantane], in data set [1] (FIG. 8), the “effect on precontracted blood vessel” value was “either no effect or slight contractions of blood vessels; also recorded: either no effect or slight blood vessel contractions”.

Regarding `CC12CC3CC(C)(C1)CC(N)(C3)C2` [memantine], in data set [2], the “parenchymal levels in the brain” value was 1 to 10 µM.

The record behind these values is US7326730B2, “Aminoadamantane derivatives as therapeutic agents” (Adamas Pharmaceuticals, Inc., priority 2000, dated 2008).
